In article PMC12040169 (PLOS Biology, 2025):

Experiment: in vitro
Conditions: human, hela cells, % viability

| SMILES | viability at 28.5 h, 10 µM | viability at 28.5 h, 10 µM (bulk resorufin, single well) |
| --- | --- | --- |
| O=c1cc(-c2cccc([N+](=O)[O-])c2)c2ccc(OCc3cc4c(cc3Cl)OCO4)cc2o1 [CBK265652] | 92.1% | – |
| CC1CCN(S(=O)(=O)c2ccc(NC(=O)c3cccc(NC(=O)C(C)C)c3)cc2)CC1 [CBK265653] | 88% | – |
| O=C(NCCNC(=O)c1ccccn1)c1ccccn1 [CBK265654] | 101% | – |
| Ic1ccc2ncnc(NCCN3CCOCC3)c2c1 [CBK265655] | 108% | – |
| CCOC(=O)c1ccc(/N=C2/NC(=O)/C(=C\c3ccccc3OCC(=O)O)S2)cc1 [CBK265658] | 101% | – |
| O=C(O)COc1ccc(N2C(=O)c3ccc(-c4nc5ccccc5c(=O)o4)cc3C2=O)cc1 [CBK265659] | 106% | – |
| Cc1cccc(N2NC(=O)/C(=C/c3cccn3-c3ccc(S(N)(=O)=O)cc3)C2=O)c1 [CBK265660] | 93.9% | – |
| O=C(COc1ccccc1Cl)NC(=S)Nc1cccc(C(=O)O)c1 [CBK265662] | 91.4% | – |
| COc1cc(/C=C2\C(=O)N(c3ccc(NC(C)=O)cc3)N=C2c2ccccc2)ccc1O [CBK265664] | 87.5% | – |
| CCc1ccccc1OCC(=O)Nc1ccc([N+](=O)[O-])cc1OC [CBK265665] | 97.1% | – |
| Cc1cc2ccccc2n2c(SCC(=O)NCc3ccco3)nnc12 [CBK265666] | 107% | – |
| C#CCOc1ccc(/C=C2/SC(=S)N(CCC(=O)O)C2=O)cc1 [CBK265667] | 94.1% | – |
| CC1CCCCN1CCNC(=O)c1ccc(Cn2c(=S)[nH]c3ccccc3c2=O)cc1 (centres unmarked) [CBK265674] | 96% | – |
| COC(=O)c1c(NC(=O)C(C)Oc2cc(C)c(Cl)c(C)c2)sc(C(C)=O)c1C (centres unmarked) [CBK265678] | 94.1% | – |
| Cc1ccccc1/N=C1/NC(=O)/C(=C/c2cccn2-c2ccc(S(N)(=O)=O)cc2)S1 [CBK265681] | 107% | – |
| CCOC(=O)c1c(NC(=O)CSc2nnc3ccccn23)sc2c1CCCCC2 [CBK265685] | 101% | – |
| Cc1nnc(SCCCCSc2nnc(C)n2N)n1N [CBK265686] | 88.5% | – |
| CCN1C(=O)/C(=C/Nc2ccc(S(N)(=O)=O)cc2)C(=O)NC1=S [CBK265687] | – | 112% |
| Cc1cc2ccccc2n2c(SCC(=O)NCC3CCCO3)nnc12 (centres unmarked) [CBK265688] | 103% | – |
| COc1ccc(CNc2nccs2)c(O)c1 [CBK265690] | 86.2% | – |
| O=S(=O)(NCc1ccccc1)c1cccc2nonc12 [CBK265692] | 90.4% | – |

| SMILES | viability at 28.5 h, 10 µM | viability at 28.5 h, 10 µM (bulk resorufin, single well) |
| --- | --- | --- |
| CC(=O)c1ccc(NC(=O)C2C3C=CC(C3=C(c3ccccc3)c3ccccc3)C2C(=O)O)cc1 (centres unmarked) [CBK265696] | 98.4% | – |
| COc1cc(/C=C2\C(=O)N(c3ccccc3Cl)N=C2c2ccccc2)ccc1O [CBK265698] | 82.8% | – |
| CCN(CC)CC(O)Cn1c(-c2cccc([N+](=O)[O-])c2)nc(=S)c2c1CCCC2 (centres unmarked) [CBK265700] | 97.1% | – |
| O=C(CSc1nc2ccccc2[nH]1)Nc1cccc(NC(=O)C23CC4CC(CC(C4)C2)C3)c1 [CBK265702] | 89.8% | – |
| O=C(COc1ccccc1C1CC(=O)Nc2ccc3ccccc3c21)Nc1ccccc1 (centres unmarked) [CBK265704] | 97.3% | – |
| COc1cc(/C=C2\S/C(=N/c3ccc(S(N)(=O)=O)cc3)NC2=O)c(Br)cc1O [CBK265711] | 96.9% | – |
| O=C(O)Cn1c2ccc(Cl)cc2c2nc3ccccc3nc21 [CBK265712] | 97.8% | – |
| O=C(C1CCN(S(=O)(=O)c2ccccc2)CC1)N1CCN(Cc2ccc3c(c2)OCO3)CC1 [CBK265713] | 104% | – |
| Cc1nnc(SCc2cccc(Oc3ccccc3)c2)n1N [CBK265714] | 104% | – |
| CN(CC(=O)O)C(=O)c1ccc(S(=O)(=O)N2CCCCC2)cc1 [CBK265715] | 112% | – |
| O=S(=O)(NC1CCCC1)c1cccc(-c2nnc(-c3ccccc3)o2)c1 [CBK265716] | 94.6% | – |
| COc1cc(C(c2c[nH]c3ccccc23)c2c[nH]c3ccccc23)ccc1OCC(=O)O [CBK265717] | 97.8% | – |
| O=C(OCc1ccc(Br)cc1)c1ccccc1S(=O)(=O)c1ccccc1[N+](=O)[O-] [CBK265718] | 92.2% | – |
| O=C(O)COc1ccc(Br)cc1C(c1c[nH]c2ccccc12)c1c[nH]c2ccccc12 [CBK265720] | 94.6% | – |
| CN(C)S(=O)(=O)c1ccc(Cl)c(C(=O)Nc2cccc([N+](=O)[O-])c2)c1 [CBK265721] | 103% | – |
| O=C(O)COc1ccc(Br)cc1/C=C1\N=C(SCc2ccccc2)SC1=O [CBK265725] | 110% | – |
| O=C(O)c1cccc(-c2ccc(/C=C3\SC(=S)N(Cc4ccco4)C3=O)o2)c1 [CBK265726] | 98.3% | – |
| CN(C)S(=O)(=O)c1ccc(Cl)c(C(=O)Nc2ccc(C(=O)O)cc2)c1 [CBK265728] | 94.7% | – |
| Cc1ccc(N2C(=O)c3ccc(C(=O)OCc4ccc([N+](=O)[O-])cc4)cc3C2=O)cc1Cl [CBK265730] | 103% | – |
| CCN(CC)S(=O)(=O)c1cc(C(=O)Nc2ccccc2C(=O)O)c(Cl)cc1Cl [CBK265731] | 125% | – |
| CC(=O)c1cccc(NC(=O)c2cc(S(=O)(=O)N(C)C)ccc2Cl)c1 [CBK265732] | 111% | – |

| SMILES | viability at 28.5 h, 10 µM | viability at 28.5 h, 10 µM (bulk resorufin, single well) |
| --- | --- | --- |
| O=C(O)c1ccc(Cl)c(S(=O)(=O)N2CCCC2C(=O)O)c1 (centres unmarked) [CBK265733] | 103% | – |
| O=C(c1ccccc1Br)N1CCN(c2ccc([N+](=O)[O-])c(NCc3cccnc3)c2)CC1 [CBK265735] | 100% | – |
| O=C(O)CCSc1nnc2[nH]c3ccccc3n12 [CBK265736] | 108% | – |
| CCn1nccc1C(=O)Nc1nc2ccccc2n1CCN1CCCCC1 [CBK265737] | 89.1% | – |
| Cc1ccc(C)c(C(=O)C2=C(O)C(=O)N(CCN(C)C)C2c2ccc(O)cc2)c1 (centres unmarked) [CBK265740] | 102% | – |
| O=C(NC(NC(=O)c1ccccc1F)c1ccc2c(c1)OCO2)c1ccccc1F [CBK265742] | 106% | – |
| COc1ccc(N2CCN(CC(=O)Nc3ccc(Cl)cc3C(=O)c3ccccc3)CC2)cc1 [CBK265743] | 90.7% | – |
| NC(=O)c1c(NC(=O)c2ccc(-c3ccccc3)cc2)sc2c1CCC2 [CBK265747] | 91.3% | – |
| O=C(Nc1ccc(Cl)cc1C(=O)NCCN1CCOCC1)c1ccc(Cl)cc1Cl [CBK265749] | 105% | – |
| O=C(c1ccc(COc2ccccc2Cl)o1)N1CCN(Cc2ccc3c(c2)OCO3)CC1 [CBK265750C] | 87.3% | – |
| CCOC(=O)c1cnc2ccc(F)cc2c1NCCN(C)C [CBK265751] | 91.7% | – |
| Sc1nncn1NCc1cc(Cl)ccc1OCc1ccccc1 [CBK265752] | 88.9% | – |
| CCn1cc(C(=O)O)c(=O)c2cnc(N3CCN(C(=S)NC(=O)c4cccs4)CC3)nc21 [CBK265753] | 95.7% | – |
| COC(=O)c1ccc(NC(=O)c2ccccc2-c2ccccc2C(=O)O)cc1 [CBK265759] | 110% | – |
| CCC(Sc1nc(N)cc(=O)[nH]1)C(=O)Nc1ccc2ccccc2c1 (centres unmarked) [CBK265761] | 98.9% | – |
| O=C(CSc1nnc(-c2ccco2)c(-c2ccco2)n1)Nc1ccccc1[N+](=O)[O-] [CBK265762] | 107% | – |
| CN1CCN(NC(=O)c2cccc(COc3ccccc3Cl)c2)CC1 [CBK265765] | 99.2% | – |
| O=C(Nc1ccc(Cc2ccc(O)c(NC(=O)c3ccccc3F)c2)cc1O)c1ccccc1F [CBK265766] | 85.4% | – |
| COc1cccc(C(=O)Nc2ccccc2C(=O)Nc2cccc(C(=O)O)c2C)c1 [CBK265768] | 88.1% | – |
| CN1CCN(C(=O)CN(Cc2ccc(Cl)cc2)S(=O)(=O)c2ccc(Br)cc2)CC1 [CBK265771] | 113% | – |
| CCn1c(=O)[nH]c2cc(C(=O)NCCc3ccccc3)ccc2c1=O [CBK265773] | 95.2% | – |

| SMILES | viability at 28.5 h, 10 µM | viability at 28.5 h, 10 µM (bulk resorufin, single well) |
| --- | --- | --- |
| O=c1[nH]c2ccc(Cl)cc2c(-c2ccccc2)c1N1CCN(Cc2ccc3c(c2)OCO3)CC1 [CBK265776] | 92.3% | – |
| Cn1c(SCC(=O)Nc2ccc(N3CCOCC3)c(Cl)c2)nnc1-c1ccc(N)cc1 [CBK265777] | 102% | – |
| CC(C)(C)CC(=O)O/N=C(\N)c1ccccn1 [CBK265779] | 105% | – |
| COc1cccc(CNn2cnnc2S)c1OCc1ccccc1 [CBK265781] | 96.3% | – |
| NC(=O)C1CCN(CC(=O)Nc2ccc([N+](=O)[O-])cc2C(=O)c2ccccc2)CC1 [CBK265782] | 89.3% | – |
| Cc1ccccc1OCC(=O)NN1CCN(C)CC1 [CBK265783C] | 89% | – |
| CN(C)CCCNc1cc(Cl)c(S(=O)(=O)N2CCCCC2)cc1C(=O)O [CBK265784] | 95.5% | – |
| CCC(Sc1nnc(-c2ccc([N+](=O)[O-])cc2)n1C)C(=O)Nc1ccc(Cl)cc1 (centres unmarked) [CBK265785] | 101% | – |
| C/C(=C(/C(=O)N(N)c1nc2ccccc2s1)C(=O)C(F)(F)F)N1CCC(C(N)=O)(N2CCCCC2)CC1 [CBK265787] | 101% | – |
| COc1ccccc1NC(=O)c1sc2ncn(CC(=O)NC3CCCCC3)c(=O)c2c1C [CBK265788] | 98.5% | – |
| Cc1ccc(-c2nc3ccccc3[nH]2)cc1NC(=O)CCCc1ccccc1 [CBK265789] | 92.9% | – |
| O=C(Nc1ccc2c(c1)OCCO2)c1cc(S(=O)(=O)N2CCCCC2)c(Cl)cc1Cl [CBK265790] | 90% | – |
| CN(CC(=O)N1CCN(Cc2ccc3c(c2)OCO3)CC1)S(=O)(=O)c1ccccc1 [CBK265791] | 87% | – |
| CC1=CCC(C(=O)O)C(C(=O)Nc2ccccc2NC(=O)c2ccc(C(F)(F)F)cc2)C1 (centres unmarked) [CBK265794] | 99.9% | – |
| Cc1nn(Cc2ccc(C(=O)N3CCN(Cc4ccccc4)CC3)o2)c(C)c1Br [CBK265796C] | 88.8% | – |
| CCC1C=CCC(C(=O)O)C1C(=O)Nc1ccc(C(=O)N2CCOCC2)cc1 (centres unmarked) [CBK265798] | 102% | – |
| O=C(CN1CCN(c2ccccc2)CC1)Nc1ccc([N+](=O)[O-])cc1C(=O)c1ccccc1 [CBK265799] | 89.6% | – |
| O=C(CN(Cc1ccc(Cl)cc1Cl)S(=O)(=O)c1ccccc1)Nc1c(F)cccc1F [CBK265801] | 99.1% | – |
| CC(=O)Nc1ccc(Nc2ncnc3c2cnn3-c2ccc(C)cc2C)cc1 [CBK265803] | 116% | – |
| COC(Cc1nc2ccccc2s1)C(=O)O (centres unmarked) [CBK265806] | 101% | – |
